Assay results published in patent US11414438B2, “Silylethynyl hetaryl compounds as nitrification inhibitors” (BASF SE, priority 2018, dated 2022).

Experiments:
nitrification = experiment: inhibition of nitrification in soil incubation (ammonium and nitrate content after 14 days); conditions: 20° C., 10 mg ammoniumsulfate-N; for NI @ 0.1%: compound at 0.1% of nitrogen N; for NI @ 0.3%: compound at 0.3% of nitrogen N; for NI @ 3%: compound at 3% of nitrogen N; for NI @ 1%: compound at 1% of nitrogen N
Procedure: The compounds of the invention have been tested as follows in terms of the inhibition of nitrification:
100 g soil is filled into 500 ml plastic bottles (e.g. soil sampled from the field) and is moistened to 50% water holding capacity. The soil is incubated at 20° C. for two weeks to activate the microbial biomass. 1 ml test solution, containing the compound in the appropriate concentration (usually 0.3 or 1% of nitrogen N), or DMSO and 10 mg nitrogen in the form of ammoniumsulfate-N is added to the soil and everything mixed well. Bottles are capped but loosely to allow air exchange. The bottles are then incubated at 20° C. for 0 and 14 days.
For analysis 300 ml of a 1% K2SO4-solution is added to the bottle containing the soil and shaken for 2 hours in a horizontal shaker at 150 rpm. Then the whole solution is filtered through a filter (Macherey-Nagel Filter MN 807¼). Ammonium and nitrate content is then analyzed in the filtrate in an autoanalyzer at 550 nm (Merck, AA11).
The inhibition (NI @ a specified concentration) is calculated as follows: […]

[1] = volatility: weight loss from open vials in the hood; format: physicochemical; conditions: 251 mg in 10 ml vials open in the hood
Procedure: The compounds of the invention have been tested in terms of their volatility. 251 mg of the compounds were provided in 10 ml vials open in the hood and tested in comparison to 5-chloro-2-ethynyl pyridine (Ref.-1). The weight loss was determined after 1 week.

Structure (SMILES) | NI @ 0.1% (nitrification) | NI @ 0.3% (nitrification) | NI @ 3% (nitrification) | NI @ 1% (nitrification) | % weight loss after 1 week [1]
C[Si](C)(C)C#Cc1ccccn1 [No. 1] | 54 | 77 | 86 |  | 
C[SiH](C)C#Cc1ccccn1 [No. 2] |  | 82 |  | 94 | 
C[Si](C)(C#Cc1ccccn1)CCl.Cl [No. 3] |  | 80 |  | 91 | 
CC(C)(C)[Si](C)(C)C#Cc1ccccn1 [No. 4] |  | 11 |  | 28 | 
C[Si](C)(C#Cc1ccccn1)O[Si](C)(C)C#Cc1ccccn1 [No. 5] |  | 78 |  | 83 | 
C[Si](C)(C#Cc1ccccn1)O[Si](C)(C)O[Si](C)(C)C#Cc1ccccn1 [No. 6] |  | 51 |  | 75 | 
C[Si](C)(C#Cc1ccccn1)O[Si](C)(C)O[Si](C)(C)O[Si](C)(C)C#Cc1ccccn1 [No. 7] |  | 31 |  | 63 | 
C[Si](C)(C#Cc1ccccn1)C[Si](C)(C)C#Cc1ccccn1 [No. 8] |  | 16 |  | 43 | 
C[Si](C)(C#Cc1ccccn1)c1ccccc1 [No. 9] |  | 83 |  | 80 | 
C[Si](C)(C)C#Cc1ccc(Cl)cn1 [No. 10] | 61 | 75 | 85 |  | 8%
Cc1ccc(C#C[Si](C)(C)C)nc1 [No. 11] |  | 63 |  | 77 | 
C[Si](C)(C)C#Cc1cnccn1 [No. 12] | 71 | 98 |  |  | 24%
C#Cc1ccc(Cl)cn1 [Ref.-1, 5-chloro-2-ethynyl pyridine, reference compound] |  |  |  |  | 53%
